Results reported in patent US20250144067A1, “PERSONALIZED STARVATION THERAPY FOR CANCER” (Faeth Therapeutics, Inc., priority 2021, published 2025).

These substances were tested on NCI-H292 lung cancer cells (assay: FDA drug screening, complete media vs cholesterol-free media without statin (TABLE 1)). Conditions: not given.
Assay type: cell-based, human

Substance	Cholesterol-free	Complete	Difference
Solifenacin (Succinate)	1.612	1.244	−0.37
Sumatriptan (succinate)	0.9558	2.035	1.08
Tamoxifen (Citrate)	0.4962	0.576	0.08

Same assay, conditions: Complete minus Cholesterol-free; >0 enhanced anti-cancer activity, about 0 neutral, <0 antagonist

Substance	Difference
Quetiapine (hemifumarate)	−0.22
Ribociclib succinate	−0.23
Ribociclib succinate hydrate	−0.21
Rupatadine (Fumarate)	−0.23
Ruxolitinib (phosphate)	−0.04
Setiptiline (maleate)	0.02
Sisomicin (sulfate)	−0.04
Sulconazole (nitrate)	0.04
Tafenoquine (Succinate)	−0.06

Same assay, conditions: Complete minus Cholesterol-free; […]

Substance	Difference
Rilmenidine (phosphate)	0.01
Selumetinib (sulfate)	−0.06
Sodium tauroglycocholate	−0.95
Streptomycin (sulfate)	−1.05

Same assay, conditions: Complete minus Cholesterol-free; greater than 0 enhanced anti-cancer activity, about 0 neutral, below 0 antagonist

Substance	Difference
Pyrantel (tartrate)	−0.17
Rasagiline (mesylate)	−0.16
Safinamide (mesylate)	−0.18
Salbutamol (hemisulfate)	−0.13

Same assay, conditions: Complete minus Cholesterol-free; greater than 0 enhanced anti-cancer activity, about 0 neutral, below 0 antagonists

Substance	Difference
Sildenafil (citrate)	−0.63
Spiramycin	−1.20

Same assay, conditions: NCI-H292 cells in cholesterol-free media without statin

Substance	Cholesterol-free
Sildenafil (citrate)	1.504
Sodium tauroglycocholate	1.712
Spiramycin	2.038
Streptomycin (sulfate)	2.317

Same assay, conditions: NCI-H292 cells in complete media

Substance	Complete
Sildenafil (citrate)	0.8696
Sodium tauroglycocholate	0.7634
Spiramycin	0.8421
Streptomycin (sulfate)	1.265

Same assay, conditions: NCI-H292 cells, FDA drug library screen, cholesterol-free media without statin

Substance	Cholesterol-free
Rasagiline (mesylate)	0.8816
Salbutamol (hemisulfate)	1.595

Same assay, conditions: NCI-H292 cells, FDA drug library screen, complete media

Substance	Complete
Pyrantel (tartrate)	0.9815
Rasagiline (mesylate)	0.7256
Salbutamol (hemisulfate)	1.464

Same assay, conditions: NCI-H292 cells, cholesterol-free media without statin

Substance	Cholesterol-free
Quetiapine (hemifumarate)	0.9339
Ribociclib succinate	0.9857
Ribociclib succinate hydrate	0.9345
Riboflavin (phosphate sodium)	1.308
Rilmenidine (hemifumarate)	1.211
Rivastigmine (tartrate)	1.242
Rupatadine (Fumarate)	1.308
Sitagliptin (phosphate monohydrate)	1.047
Sultamicillin (tosylate)	1.337
Tandospirone (citrate)	1.167

Same assay, conditions: NCI-H292 cells, cholesterol-free media without statin, FDA drug library screen

Substance	Cholesterol-free
Rilmenidine (phosphate)	0.9893
Rucaparib (phosphate)	0.6538
Ruxolitinib (phosphate)	0.6764
Saquinavir (Mesylate)	0.7536
Selumetinib (sulfate)	0.3932
Sertaconazole (nitrate)	0.6893
Setiptiline (maleate)	0.9606
Sisomicin (sulfate)	0.9293
Sorafenib (Tosylate)	0.8797
Sulconazole (nitrate)	0.9221
Tafenoquine (Succinate)	1.252

Same assay, conditions: NCI-H292 cells, complete media

Substance	Complete
Quetiapine (hemifumarate)	0.7112
Ribociclib succinate	0.7555
Ribociclib succinate hydrate	0.7226
Riboflavin (phosphate sodium)	0.9828
Rilmenidine (hemifumarate)	0.771
Rivastigmine (tartrate)	0.9137
Sitagliptin (phosphate monohydrate)	0.6455
Sultamicillin (tosylate)	1.021
Tandospirone (citrate)	0.8565

Same assay, conditions: NCI-H292 cells, complete media, FDA drug library screen

Substance	Complete
Rilmenidine (phosphate)	0.995
Rucaparib (phosphate)	0.9448
Ruxolitinib (phosphate)	0.6315
Saquinavir (Mesylate)	1.206
Selumetinib (sulfate)	0.3287
Sertaconazole (nitrate)	0.8595
Setiptiline (maleate)	0.9832
Sisomicin (sulfate)	0.8918
Sorafenib (Tosylate)	0.9619
Sulconazole (nitrate)	0.9667
Tafenoquine (Succinate)	1.196

Same assay, conditions: complete vs cholesterol-free media; >0 enhanced anti-cancer activity, about 0 neutral, <0 antagonist

Substance	Difference
Rucaparib (phosphate)	0.29
Saquinavir (Mesylate)	0.45
Sertaconazole (nitrate)	0.17

Same assay, conditions: complete vs cholesterol-free media; […]

Substance	Difference
Rilmenidine (hemifumarate)	−0.44
Rivastigmine (tartrate)	−0.33
Sorafenib (Tosylate)	0.08

Same assay, conditions: complete vs cholesterol-free media; greater than 0 enhanced anti-cancer activity, about 0 neutral, below 0 antagonists

Substance	Difference
Riboflavin (phosphate sodium)	−0.32
Sitagliptin (phosphate monohydrate)	−0.40
Sultamicillin (tosylate)	−0.32
Tandospirone (citrate)	−0.31

Each substance was assayed on NCI-H292 lung cancer cells (assay: FDA drug screening, complete media vs cholesterol-free media with simvastatin (TABLE 2)). Conditions: not given.
Assay type: cell-based, human

Substance	Cholesterol-free media + simvastatin (0.04 μM)	Complete Media	Difference
Solifenacin (Succinate)	0.8847	0.7655	−0.12
Sumatriptan (succinate)	1.195	0.8897	−0.31
Tamoxifen (Citrate)	0.9205	0.7671	−0.15

Same assay, conditions: NCI-H292 cells, FDA drug library screen, cholesterol-free media with simvastatin 0.04 μM

Substance	Cholesterol-free media + simvastatin (0.04 μM)
Quetiapine (hemifumarate)	0.6141
Rasagiline (mesylate)	1.319
Riboflavin (phosphate sodium)	1.127
Rupatadine (Fumarate)	0.9792
Saquinavir (Mesylate)	2.052
Selumetinib (sulfate)	0.2941
Sertaconazole (nitrate)	0.3702
Sorafenib (Tosylate)	1.142
Sulconazole (nitrate)	0.3022
Tafenoquine (Succinate)	1.136

Same assay, conditions: NCI-H292 cells, FDA drug library screen, complete media

Substance	Complete Media
Quetiapine (hemifumarate)	0.8428
Rasagiline (mesylate)	1.208
Riboflavin (phosphate sodium)	0.9972
Rupatadine (Fumarate)	1.536
Saquinavir (Mesylate)	1.925
Sertaconazole (nitrate)	0.8436
Sulconazole (nitrate)	0.9753
Tafenoquine (Succinate)	1.045

Same assay, conditions: NCI-H292 cells, FDA library drug in cholesterol-free media with simvastatin 0.04 μM

Substance	Cholesterol-free media + simvastatin (0.04 μM)
Pyrantel (tartrate)	1.712
Rilmenidine (hemifumarate)	1.87
Salbutamol (hemisulfate)	2.036
Sodium tauroglycocholate	1.256

Same assay, conditions: NCI-H292 cells, FDA library drug in complete media

Substance	Complete Media
Pyrantel (tartrate)	1.209
Rilmenidine (hemifumarate)	1.431
Salbutamol (hemisulfate)	1.453
Sodium tauroglycocholate	0.9729

Same assay, conditions: NCI-H292 cells, cholesterol-free media with simvastatin 0.04 μM; FDA drug library screen (TABLE 2)

Substance	Cholesterol-free media + simvastatin (0.04 μM)
Ribociclib succinate	0.606
Rilmenidine (phosphate)	1.249
Rivastigmine (tartrate)	1.478
Sildenafil (citrate)	0.9766

Same assay, conditions: NCI-H292 cells, cholesterol-free media with simvastatin 0.04 μM; cell growth value in FDA drug screen

Substance	Cholesterol-free media + simvastatin (0.04 μM)
Ribociclib succinate hydrate	0.4954
Sisomicin (sulfate)	0.697
Sultamicillin (tosylate)	1.072

Same assay, conditions: NCI-H292 cells, complete media; FDA drug library screen (TABLE 2)

Substance	Complete Media
Ribociclib succinate	0.6094
Rilmenidine (phosphate)	1.215
Rivastigmine (tartrate)	1.417
Rucaparib (phosphate)	1.39
Sildenafil (citrate)	0.9106

Same assay, conditions: NCI-H292 cells, complete media; cell growth value in FDA drug screen

Substance	Complete Media
Ribociclib succinate hydrate	0.6321
Sisomicin (sulfate)	0.7346
Sultamicillin (tosylate)	1.191

Same assay, conditions: NCI-H292 cells, drug in cholesterol-free media with simvastatin 0.04 μM

Substance	Cholesterol-free media + simvastatin (0.04 μM)
Ruxolitinib (phosphate)	0.8715
Setiptiline (maleate)	1.022
Sitagliptin (phosphate monohydrate)	1.13
Spiramycin	1.277
Streptomycin (sulfate)	1.77

Same assay, conditions: NCI-H292 cells, drug in complete media

Substance	Complete Media
Ruxolitinib (phosphate)	0.6795
Safinamide (mesylate)	0.843
Setiptiline (maleate)	0.7709
Sitagliptin (phosphate monohydrate)	0.959
Streptomycin (sulfate)	1.586

Same assay, conditions: complete media minus cholesterol-free media + simvastatin (0.04 μM); >0 enhanced anti-cancer activity, about 0 neutral, <0 antagonist

Substance	Difference
Ribociclib succinate	0.00
Rucaparib (phosphate)	−0.02
Sildenafil (citrate)	−0.07
Tandospirone (citrate)	0.00

Same assay, conditions: complete media minus cholesterol-free media + simvastatin (0.04 μM); […]

Substance	Difference
Rilmenidine (phosphate)	−0.03
Rivastigmine (tartrate)	−0.06

Same assay, conditions: complete media minus cholesterol-free media + simvastatin; >0 enhanced anti-cancer activity, about 0 neutral, <0 antagonist

Substance	Difference
Quetiapine (hemifumarate)	0.23
Ribociclib succinate hydrate	0.14
Rupatadine (Fumarate)	0.56
Sertaconazole (nitrate)	0.47
Sisomicin (sulfate)	0.04
Sulconazole (nitrate)	0.67
Sultamicillin (tosylate)	0.12

Same assay, conditions: complete media vs cholesterol-free media + simvastatin (0.04 μM); >0 enhanced anti-cancer activity, about 0 neutral, <0 antagonist

Substance	Difference
Pyrantel (tartrate)	−0.50
Rasagiline (mesylate)	−0.11
Riboflavin (phosphate sodium)	−0.13
Ruxolitinib (phosphate)	−0.19
Safinamide (mesylate)	−0.20
Salbutamol (hemisulfate)	−0.58
Saquinavir (Mesylate)	−0.13
Setiptiline (maleate)	−0.25
Sitagliptin (phosphate monohydrate)	−0.17
Spiramycin	−0.16
Tafenoquine (Succinate)	−0.09

Same assay, conditions: complete media vs cholesterol-free media + simvastatin (0.04 μM); […]

Substance	Difference
Rilmenidine (hemifumarate)	−0.44
Selumetinib (sulfate)	−0.10
Sodium tauroglycocholate	−0.28
Sorafenib (Tosylate)	−0.09
Streptomycin (sulfate)	−0.18
